Our source for the IC50 values is ChEMBL document CHEMBL1124714, “Synthesis and in vitro activity of stereoisomers of a novel thromboxane receptor antagonist, (+-)-(5Z)-7-[3-endo-[(phenylsulfonyl)amino]bicyclo [2.2.1]hept-2-exo-yl]heptenoic acid” (J Med Chem, 1990).

Each structure is given as a SMILES string.

Assay type in all cases: functional, organism-based
The species entered for one test is Homo sapiens. Nature of the test: Inhibitory activity against aggregation of human platelet-rich plasma(induced by 4 uM of U-46619).
The species named for test [1] is Rattus norvegicus. Nature of the test: Inhibitory activity against rat thoracic aorta(induced by 30 nM of U-46619).
The species entered for test [2] is Rattus norvegicus. The test is described as follows: Inhibitory activity against aggregation of rat washed platelets (induced by 4 ug/mL of collagen).

On to `O=C(O)CCC/C=C\C[C@H]1C2CC[C@@H](C2)[C@@H]1NS(=O)(=O)c1ccccc1`, for which the IC50 (in general, the concentration at which inhibition is half-maximal) worked out at 0.45 µM in the test filed under Homo sapiens, 0.0014 µM in the test filed under Rattus norvegicus [1] and 0.0029 µM in the test listed under Rattus norvegicus [2].
The compound `O=C(O)CCC/C=C\C[C@@H]1[C@H](CNNC(=O)Nc2ccccc2)[C@H]2CC[C@H]1O2` returned an IC50 in the test listed under Homo sapiens of 0.06 µM.
On to `O=C(O)CCC/C=C\C[C@@H]1C2CC[C@@H](C2)[C@@H]1NS(=O)(=O)c1ccccc1`, for which the results for the IC50 in the test filed under Homo sapiens, in the test listed under Rattus norvegicus [1] and in the test listed under Rattus norvegicus [2] were 2.5 µM, 0.0372 µM and 0.0041 µM, respectively.
In the same order, the values of `O=C(O)CCC/C=C\C[C@@H]1C2CC[C@@H](C2)[C@H]1NS(=O)(=O)c1ccccc1` are 3.3 µM, 0.0169 µM and 0.0029 µM.
In the same order, the values of `O=C(O)COc1ccc(CCNS(=O)(=O)c2ccccc2)cc1` [SULOTROBAN] are 7.2 µM, 1.8 µM and 0.26 µM.
